Laboratory results published in patent US6914045B2, “Glycopeptide antibiotics” (Wyeth Holdings Corporation, priority 2001, dated 2005).
Converted amounts (≈) assume the structure as drawn.

Columns and labels:
Staphylococcus sp. = assay: in vitro antibacterial evaluation, MIC by broth dilution; assay type: cell-based; conditions: broth dilution, 18 hours at 35° C.
Outline: (§1)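 MIC = lowest antibiotic concentration preventing visible growth; inoculum 5×10^5 CFU/mL; drug range 64-0.06 μg/mL; Muller-Hinton II […]; NCCLS M7-A2 guidance.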

Enterococcus sp. = assay: as above; assay type: cell-based; conditions: broth dilution, 18 hours at 35° C.
Outline: as §1

Escherichia coli = assay: as above; assay type: cell-based; conditions: 18 hours at 35° C., strain ATCC 25922
Outline: as §1

Streptococcus sp. = assay: as above; assay type: cell-based; conditions: broth dilution, 18 hours at 35° C.
Outline: as §1

[1] = system: Streptococcus pneumoniae (GC 1894); assay: acute lethal infection in mice; assay type: in vivo; conditions: female CD-1 mice, intraperitoneal challenge, intravenous 30 min. after infection, 7 day survival
Outline: (§2)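 Female CD-1 mice (20+/−2 gm) were infected intraperitoneally with enough bacteria, suspended in trypticase soy broth or hog gastric mucin, to kill untreated controls within 24-48 hr. Compound in saline or 5% dextrose was given intravenously 30 min post-infection, five mice per dose. ED50 came from pooled 7 day survival of 3 tests.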

[2] = system: Enterococcus faecalis (GC 6189); assay: acute lethal infection in mice; assay type: in vivo; conditions: female CD-1 mice, intraperitoneal challenge, intravenous 30 min. after infection, 7 day survival
Outline: as §2

[3] = system: Staphylococcus aureus-SMITH (GC 4543); assay: acute lethal infection in mice; assay type: in vivo; conditions: acute lethal infection, female CD-1 mice, intraperitoneal challenge, intravenous 30 min. after infection, 7 day survival
Outline: as §2

CCCC(C)C1OCC2OC(OC3C(CO)OC(Oc4ccc(CC5NC(=O)C(C(C)c6ccccc6)NC(=O)CNC(=O)C(CO)NC(=O)C(C(O)C6CNC(=N)N6C6OC(CO)C(O)C(O)C6O)NC(=O)C(C(O)C6CNC(=N)N6)NC5=O)cc4)C(O)C3O)C(O)C(O)C2O1 (stereo not drawn) [Example 111, Cyclo[glycyl-β-methylphenylalanyl-O-[4-O-[4,6-O-(2-methylpentylidene)hexopyranosyl]-hexopyranosyl]tyrosyl-3-(2-iminoimidazolidin-4-yl)seryl-3-(3-hexopyranosyl-2-iminoimidazolidin-4-yl)serylseryl]]
MIC Coagulase Negative Staphylococcus (GC 4547) (Staphylococcus sp.): 0.5 µg/mL (≈ 0.363 µM) | MIC Coagulase Negative Staphylococcus (GC 4548) (Staphylococcus sp.): 1 µg/mL (≈ 0.726 µM) | MIC Coagulase Negative Staphylococcus (GC 4549) (Staphylococcus sp.): 0.5 µg/mL (≈ 0.363 µM) | MIC Coagulase Negative Staphylococcus (GC 4551) (Staphylococcus sp.): 1 µg/mL (≈ 0.726 µM) | MIC Coagulase Negative Staphylococcus (ID-3941) (Staphylococcus sp.): 1 µg/mL (≈ 0.726 µM) | MIC Staphylococcus aureus (ATCC 29213) (Staphylococcus sp.): 1 µg/mL (≈ 0.726 µM) | MIC Staphylococcus aureus (GC 1131) (Staphylococcus sp.): 1 µg/mL (≈ 0.726 µM) | MIC Staphylococcus aureus (GC 4541) (Staphylococcus sp.): 1 µg/mL (≈ 0.726 µM) | MIC Staphylococcus aureus (GC 4542) (Staphylococcus sp.): 1 µg/mL (≈ 0.726 µM) | MIC Staphylococcus aureus (GC 4544) (Staphylococcus sp.): 1 µg/mL (≈ 0.726 µM) | MIC Staphylococcus aureus (GC 4545) (Staphylococcus sp.): 1 µg/mL (≈ 0.726 µM) | MIC Staphylococcus aureus-SMITH (GC 4543) (Staphylococcus sp.): 1 µg/mL (≈ 0.726 µM) | MIC Staphylococcus haemolyticus (GC 4546) (Staphylococcus sp.): 1 µg/mL (≈ 0.726 µM) | MIC Staphylococcus aureus (GC 1131) (Staphylococcus sp.; inoculum 5×10^5 CFU/mL, strain GC 1131): 1 µg/mL (≈ 0.726 µM) | MIC Staphylococcus aureus (ATCC 29213) (Staphylococcus sp.; strain ATCC 29213): 1 µg/mL (≈ 0.726 µM) | MIC Staphylococcus aureus (GC 4541) (Staphylococcus sp.; strain GC 4541): 1 µg/mL (≈ 0.726 µM) | MIC Staphylococcus aureus (GC 4542) (Staphylococcus sp.; strain GC 4542): 1 µg/mL (≈ 0.726 µM) | MIC Staphylococcus aureus (GC 4544) (Staphylococcus sp.; strain GC 4544): 1 µg/mL (≈ 0.726 µM) | MIC Staphylococcus aureus (GC 4545) (Staphylococcus sp.; strain GC 4545): 1 µg/mL (≈ 0.726 µM) | MIC Staphylococcus haemolyticus (GC 4546) (Staphylococcus sp.; strain GC 4546): 1 µg/mL (≈ 0.726 µM) | MIC Coagulase Negative Staphylococcus (GC 4547) (Staphylococcus sp.; strain GC 4547): 0.5 µg/mL (≈ 0.363 µM) | MIC Coagulase Negative Staphylococcus (GC 4548) (Staphylococcus sp.; strain GC 4548): 1 µg/mL (≈ 0.726 µM) | MIC Coagulase Negative Staphylococcus (GC 4549) (Staphylococcus sp.; strain GC 4549): 0.5 µg/mL (≈ 0.363 µM) | MIC Coagulase Negative Staphylococcus (GC 4551) (Staphylococcus sp.; strain GC 4551): 1 µg/mL (≈ 0.726 µM) | MIC Coagulase Negative Staphylococcus (ID-3941) (Staphylococcus sp.; strain ID-3941): 1 µg/mL (≈ 0.726 µM) | MIC Staphylococcus aureus-SMITH (GC 4543) (Staphylococcus sp.; strain SMITH GC 4543): 1 µg/mL (≈ 0.726 µM) | MIC Enterococcus avium (GC 4558) (Enterococcus sp.; Enterococcus avium (GC 4558)): 2 µg/mL (≈ 1.45 µM) | MIC Enterococcus faecalis (ATCC 29212) (Enterococcus sp.; Enterococcus faecalis (ATCC 29212)): 2 µg/mL (≈ 1.45 µM) | MIC Enterococcus faecalis (GC 2242) (Enterococcus sp.; Enterococcus faecalis (GC 2242)): 1 µg/mL (≈ 0.726 µM) | MIC Enterococcus faecalis (GC 4552) (Enterococcus sp.; Enterococcus faecalis (GC 4552)): 2 µg/mL (≈ 1.45 µM) | MIC Enterococcus faecalis (GC 4553) (Enterococcus sp.; Enterococcus faecalis (GC 4553)): 2 µg/mL (≈ 1.45 µM) | MIC Enterococcus faecalis (GC 4554) (Enterococcus sp.; Enterococcus faecalis (GC 4554)): 2 µg/mL (≈ 1.45 µM) | MIC Enterococcus faecium (GC 2243) (Enterococcus sp.; Enterococcus faecium (GC 2243)): 1 µg/mL (≈ 0.726 µM) | MIC Enterococcus faecium (GC 4556) (Enterococcus sp.; Enterococcus faecium (GC 4556)): 2 µg/mL (≈ 1.45 µM) | MIC Enterococcus faecium (GC 4557) (Enterococcus sp.; Enterococcus faecium (GC 4557)): 0.5 µg/mL (≈ 0.363 µM) | MIC Enterococcus faecalis (ATCC 29212) (Enterococcus sp.; strain ATCC 29212): 2 µg/mL (≈ 1.45 µM) | MIC Enterococcus faecalis (GC 2242) (Enterococcus sp.; strain GC 2242): 1 µg/mL (≈ 0.726 µM) | MIC Enterococcus faecium (GC 2243) (Enterococcus sp.; strain GC 2243): 1 µg/mL (≈ 0.726 µM) | MIC Enterococcus faecalis (GC 4552) (Enterococcus sp.; strain GC 4552): 2 µg/mL (≈ 1.45 µM) | MIC Enterococcus faecalis (GC 4553) (Enterococcus sp.; strain GC 4553): 2 µg/mL (≈ 1.45 µM) | MIC Enterococcus faecalis (GC 4554) (Enterococcus sp.; strain GC 4554): 2 µg/mL (≈ 1.45 µM) | MIC Enterococcus faecium (GC 4556) (Enterococcus sp.; strain GC 4556): 2 µg/mL (≈ 1.45 µM) | MIC Enterococcus faecium (GC 4557) (Enterococcus sp.; strain GC 4557): 0.5 µg/mL (≈ 0.363 µM) | MIC Enterococcus avium (GC 4558) (Enterococcus sp.; strain GC 4558): 2 µg/mL (≈ 1.45 µM) | MIC Escherichia coli (ATCC 25922) (Escherichia coli): 32 µg/mL (≈ 23.2 µM) | MIC Streptococcus agalactiae (GC 4564) (Streptococcus sp.; Streptococcus agalactiae (GC 4564)): 1 µg/mL (≈ 0.726 µM) | MIC Streptococcus pneumoniae (GC 4565) (Streptococcus sp.; Streptococcus pneumoniae (GC 4565)): 0.5 µg/mL (≈ 0.363 µM) | MIC Streptococcus pyogenes (ID-3187) (Streptococcus sp.; Streptococcus pyogenes (ID-3187)): 0.5 µg/mL (≈ 0.363 µM) | MIC Streptococcus agalactiae (GC 4564) (Streptococcus sp.; strain GC 4564): 1 µg/mL (≈ 0.726 µM) | MIC Streptococcus pneumoniae (GC 4565) (Streptococcus sp.; strain GC 4565): 0.5 µg/mL (≈ 0.363 µM) | MIC Streptococcus pyogenes (ID-3187) (Streptococcus sp.; strain ID-3187): 0.5 µg/mL (≈ 0.363 µM) | median effective dose (ED50), Streptococcus pneumoniae (GC 1894) [1]: 0.03 mg/kg | median effective dose (ED50), Enterococcus faecalis (GC 6189) [2]: 0.28 mg/kg | median effective dose (ED50), Staphylococcus aureus-SMITH (GC 4543) [3]: 0.14 mg/kg
